Assay results taken from patent US10653717B2, “Antibiotic compositions” (priority 2016, dated 2020).

Columns and labels:
[1] = test system: KP-2: K. pneumonia subsp. pneumonia 0322#; experiment: MIC of silver with antibiotics on clinical isolated MDR Gram-negative bacteria; assay type: cell-based, Klebsiella pneumonia; conditions: antibiotic 4 μM
Experimental: (§1) There are five clinically most difficult-to-treat MDR Gram-negative pathogen species: Klebsiella pneumonia, Acinetobacter baumannii, Pseudomonas aeruginosa, Enterobacter cloacae and Escherichia coli. One strain from each species was isolated, and overnight cultures were diluted 1:1000 times in LB medium, and treated with serial concentrations of Ag^+ and antibiotics in combinations for 24 h (Table 10).
(§2) Five clinical isolated MDR Gram-negative strains were grown until an OD600 nm of 0.4, and were diluted 1:1,000 into 100 μl LB medium in 96 micro-well plates. […] The cultures treated with the same serial dilutions of 100 μl ebselen and silver nitrate were used as the positive control.

ECL-2: E. cloacae 2301# [2] = experiment: as above; assay type: cell-based, Enterobacter cloacae; conditions: antibiotic 4 μM
Experimental: as §1, §2

[3] = test system: AB-1: Acinetobacter baumannii H#; experiment: as above; assay type: cell-based; conditions: antibiotic 4 μM
Experimental: as §1, §2

[4] = test system: PA-1: Pseudomonas aeruginosa 1298#; experiment: as above; assay type: cell-based; conditions: antibiotic 4 μM
Experimental: as §1, §2

[5] = test system: ECO-1: Escherichia coli 1139#; experiment: as above; assay type: cell-based; conditions: antibiotic 4 μM
Experimental: as §1, §2

ECO-3: E. coli ZY-1 = experiment: Drug sensitivity of clinical isolated strain; assay type: cell-based, Escherichia coli; also: key: R: resistant; S: sensitive
ECL-2: E. cloacae 2301# [6] = experiment: Drug sensitivity of clinical isolated strain; assay type: cell-based, Enterobacter cloacae; also: key: R: resistant; S: sensitive
[7] = test system: KP-1: Klebsiella pneumonia subsp. pneumonia 13#; experiment: Drug sensitivity of clinical isolated strain; assay type: cell-based; conditions: KP-1 (Table 3); also: key: R: resistant; S: sensitive
[8] = test system: ECO-1: Escherichia coli 1139#; experiment: Drug sensitivity of clinical isolated strain; assay type: cell-based; also: key: R: resistant; S: sensitive
ECO-2: E. coli 2219# = experiment: Drug sensitivity of clinical isolated strain; assay type: cell-based, Escherichia coli; conditions: ECO-2 (Table 3); also: key: R: resistant; S: sensitive
[9] = test system: KP-2: K. pneumonia subsp. pneumonia 0322#; experiment: Drug sensitivity of clinical isolated strain; assay type: cell-based, Klebsiella pneumonia; also: key: R: resistant; S: sensitive
[10] = test system: PA-2: P. aeruginose 0009#; experiment: Drug sensitivity of clinical isolated strain; assay type: cell-based, Pseudomonas aeruginosa; conditions: PA-2 (Table 3); also: key: R: resistant; S: sensitive
[11] = test system: AB-1: Acinetobacter baumannii H#; experiment: Drug sensitivity of clinical isolated strain; assay type: cell-based; also: key: R: resistant; S: sensitive
AB-2: A. baumannii 0361# = experiment: Drug sensitivity of clinical isolated strain; assay type: cell-based, Acinetobacter baumannii; conditions: AB-2 (Table 3); also: key: R: resistant; S: sensitive
[12] = test system: ECL-1: Enterobacter cloacae 0431#; experiment: Drug sensitivity of clinical isolated strain; assay type: cell-based; conditions: ECL-1 (Table 3); also: key: R: resistant; S: sensitive
[13] = test system: PA-1: Pseudomonas aeruginose 1298#; experiment: Drug sensitivity of clinical isolated strain; assay type: cell-based, Pseudomonas aeruginosa; also: key: R: resistant; S: sensitive
GSH = GSH amount in treated E. coli cell extracts, GR-coupled DTNB reduction; assay type: cell-based, Escherichia coli; conditions: 5 μM Ag^+ and 80 μM antibiotic; 10 min; compared with antibiotics themselves
wild type E. coli DHB4 = experiment: MIC of nine antibiotics and silver in combinations on E. coli DHB4; assay type: cell-based, Escherichia coli; conditions: 24 h
Experimental: E. coli DHB4 overnight cultures were diluted 1:1000 times in Luria Bertani (LB) medium, and treated with serial dilutions of ionic silver (Ag^+) as a nitrate salt and 9 antibiotics in combinations, separately, for 24 h.
E. coli DHB4 from frozen stock were grown overnight at 37° C., 400 rpm. The overnight culture was diluted 1:100 with 5 ml of LB medium in 15 ml tubes and incubated at 37° C. at 400 rpm. Cells were grown until an OD600 nm of 0.4 and were used for antibiotic treatment. Briefly, cells were diluted 1:1,000 into 100 μl of LB medium in 96 micro-well plates. […] The minimum inhibition concentration (MIC) was determined as the lowest concentration of drugs that inhibited 90% of growth compared to the untreated cells after 24 h culture at 37° C. The cultures treated with the same serial dilutions of 100 μl ebselen and silver nitrate were used as the positive control.

E. coli = experiment: Degree of synergy, Bliss Independence Model; assay type: cell-based, Escherichia coli; conditions: 5 μM AgNO3 with 80 μM antibiotic; 1 and 4 h

Compound	MIC of silver in the presence of different antibiotics [1] [µM]	MIC of silver in the presence of different antibiotics (ECL-2: E. cloacae 2301# [2]) [µM]	MIC of silver in the presence of different antibiotics [3] [µM]	MIC of silver in the presence of different antibiotics [4] [µM]	MIC of silver in the presence of different antibiotics [5] [µM]	Drug sensitivity (ECO-3: E. coli ZY-1; E. coli ZY-1 (Table 7))	Drug sensitivity (ECO-3: E. coli ZY-1; ECO-3 (Table 3))	Drug sensitivity (ECL-2: E. cloacae 2301# [6]; ECL-2 (Table 3))	Drug sensitivity (ECL-2: E. cloacae 2301# [6]; ECL-2 (table of Example 3))	Drug sensitivity [7]	Drug sensitivity ([8]; ECO-1 (Table 3))	Drug sensitivity ([8]; ECO-1 (table of Example 3))	Drug sensitivity (ECO-2: E. coli 2219#)	Drug sensitivity [10]	Drug sensitivity ([11]; AB-1 (Table 3))	Drug sensitivity ([11]; AB-1 (table of Example 3))	Drug sensitivity (AB-2: A. baumannii 0361#)	Drug sensitivity [12]	Drug sensitivity ([13]; PA-1 (Table 3))	Drug sensitivity ([13]; PA-1 (table of Example 3))	also measured
CN[C@@H]1[C@@H](O)[C@@H](O[C@@H]2[C@@H](O)[C@H](O[C@H]3O[C@H]([C@@H](C)O)[C@@H](O)[C@H](O)[C@H]3N)[C@@H](N)C[C@H]2N)OC[C@]1(C)O [Geneticin]	160	160	80	80	40																
NC[C@H]1O[C@H](O[C@H]2[C@H](O)[C@@H](O[C@H]3O[C@H](CO)[C@@H](O)[C@H](N)[C@H]3O)[C@H](N)C[C@@H]2N)[C@H](O)[C@@H](O)[C@@H]1O [Kanamycin]	160	160	80	80	40																
C[C@]1(Cn2ccnn2)[C@H](C(=O)O)N2C(=O)C[C@H]2S1(=O)=O [Tazobactam]						S	S	R	R	R	S	S	R/S	R	R	R	R	S	R/S	R/S	Drug sensitivity ([9]; KP-2 (Table 3)): R; Drug sensitivity ([9]; KP-2 (table of Example 3)): R
CN(C)[C@@H]1C(O)=C(C(N)=O)C(=O)[C@@]2(O)C(O)=C3C(=O)c4c(O)cccc4[C@@](C)(O)[C@H]3C[C@@H]12 [Tetracycline]			80	80	80	R	S	R	R		R	R	S	R	R	R	R	R	R	R	
Gentamicin	160	160	80	40	40	S	S	R	R	R	S	S	R	R	R	R	R	R	S	S	Drug sensitivity ([9]; KP-2 (Table 3)): R; Drug sensitivity ([9]; KP-2 (table of Example 3)): R; total GSH amount in cell extracts (GSH): slightly deplete; Antibacterial effect as MIC of antibiotic and silver (wild type E. coli DHB4; listed as head Silver (μM) 0): 40 µM; Antibacterial effect as MIC of antibiotic and silver (wild type E. coli DHB4; listed as head Silver (μM) 1): 20 µM; Antibacterial effect as MIC of antibiotic and silver (wild type E. coli DHB4; listed as head Silver (μM) 2): 2.5 µM; Antibacterial effect as MIC of antibiotic and silver (wild type E. coli DHB4; listed as head Silver (μM) 4): 1.25 µM; activity with silver on E. coli DHB4 growth (wild type E. coli DHB4; serial dilutions of Ag^+ and antibiotic): synergistic activity; degree of synergy with Ag^+ (Bliss model) (E. coli): synergistic combinations
